The values below come from ChEMBL document CHEMBL4330081, “Rational design of 5-((1H-imidazol-1-yl)methyl)quinolin-8-ol derivatives as novel bromodomain-containing protein 4 inhibitors” (Eur J Med Chem, 2019).

The target of data set [1] is T1, Bromodomain-containing protein 4 (Homo sapiens, UniProt O60885). Nature of the data set: Inhibition of BRD4 BD1 (unknown origin) using biotin labelled NeC: SGRG-K(Ac)-GG-K(Ac)-GLG-K(Ac)-GGA-K(Ac)-RHRKVGG-K as substrate preincubated for 15 mins followed by substrate addition measured after 30 mins by alpha screen assay. In general terms: In Alpha technology, singlet oxygen from a donor bead excites a nearby acceptor bead.

The test system of the next data set is MV4-11. Nature of the data set: Antiproliferative activity against human MV4-11 cells after 72 hrs by CellTiter Glo luminescent assay. The note with it: MV4-11, 72 h. Format: functional, cell-based.
Another data set relates to MDA-MB-231. Nature of the data set: Antiproliferative activity against human MDA-MB-231 cells after 72 hrs by CellTiter Glo luminescent assay. The note with it: MDA-MB-231, 72 h. Format: functional, cell-based.
The next data set concerns MM1.S. The experiment in a line: Antiproliferative activity against human MM1S cells after 72 hrs by CellTiter Glo luminescent assay. The format is functional, cell-based.
The target of data set [2] is T1, Bromodomain-containing protein 4. The experiment in a line: Inhibition of BRD4 in human MV4-11 cells assessed as down regulation of c-myc after 6 hrs by Western blot analysis. The format is cell-based. Background: Immunoblotting shows a protein as a band on a membrane.
The target is the same in data set [3]. The experiment in a line: Inhibition of BRD4 in human MM1S cells assessed as down regulation of c-myc after 6 hrs by Western blot analysis. The format is cell-based.
Data set [4] can be described thus: Half life in human hepatocytes at 1 uM up to 120 mins by LC/MS analysis. Format: ADME, cell-based, Hepatocyte.
Data set [5] addresses T1, Bromodomain-containing protein 4.
Description: Stabilization of BRD4 BD1 (unknown origin) assessed as change in melting temperature at protein to test compound molar ratio of 1:40 by SYPRO Orange dye based fluorescence analysis
A further data set has as its target hERG (KCNH2) (Homo sapiens, UniProt Q12809). The experiment in a line: in vitro. The note with it: CHO cells expressing human ERG.
The target of data set [6] is T1, Bromodomain-containing protein 4. Nature of the data set: Stabilization of BRD4 BD1 (unknown origin) assessed as change in melting temperature at protein to test compound molar ratio of 1:80 by SYPRO Orange dye based fluorescence analysis.
Data set [7] shares this target. The experiment in a line: Stabilization of BRD4 BD1 (unknown origin) assessed as change in melting temperature at protein to test compound molar ratio of 1:20 by SYPRO Orange dye based fluorescence analysis.
Data set [8] has the same target. The experiment in a line: Stabilization of BRD4 BD1 (unknown origin) assessed as change in melting temperature at protein to test compound molar ratio of 1:10 by SYPRO Orange dye based fluorescence analysis.
The target is the same in data set [9]. The experiment in a line: Inhibition of BRD4 in human MDA-MB-231 cells assessed as down regulation of c-myc at 3.125 to 50 uM after 6 hrs by Western blot analysis. Format: cell-based.
Data set [10] has the same target. The experiment in a line: Inhibition of BRD4 in human MV4-11 cells assessed as down regulation of c-myc at 3.125 to 50 uM after 6 hrs by Western blot analysis. Format: cell-based.

SMILES strings stand for the structures. pIC50: −log10 of the molar value. Calls of active or inactive are those of the source.

Chain of hERG (KCNH2) (Q12809 whole entry): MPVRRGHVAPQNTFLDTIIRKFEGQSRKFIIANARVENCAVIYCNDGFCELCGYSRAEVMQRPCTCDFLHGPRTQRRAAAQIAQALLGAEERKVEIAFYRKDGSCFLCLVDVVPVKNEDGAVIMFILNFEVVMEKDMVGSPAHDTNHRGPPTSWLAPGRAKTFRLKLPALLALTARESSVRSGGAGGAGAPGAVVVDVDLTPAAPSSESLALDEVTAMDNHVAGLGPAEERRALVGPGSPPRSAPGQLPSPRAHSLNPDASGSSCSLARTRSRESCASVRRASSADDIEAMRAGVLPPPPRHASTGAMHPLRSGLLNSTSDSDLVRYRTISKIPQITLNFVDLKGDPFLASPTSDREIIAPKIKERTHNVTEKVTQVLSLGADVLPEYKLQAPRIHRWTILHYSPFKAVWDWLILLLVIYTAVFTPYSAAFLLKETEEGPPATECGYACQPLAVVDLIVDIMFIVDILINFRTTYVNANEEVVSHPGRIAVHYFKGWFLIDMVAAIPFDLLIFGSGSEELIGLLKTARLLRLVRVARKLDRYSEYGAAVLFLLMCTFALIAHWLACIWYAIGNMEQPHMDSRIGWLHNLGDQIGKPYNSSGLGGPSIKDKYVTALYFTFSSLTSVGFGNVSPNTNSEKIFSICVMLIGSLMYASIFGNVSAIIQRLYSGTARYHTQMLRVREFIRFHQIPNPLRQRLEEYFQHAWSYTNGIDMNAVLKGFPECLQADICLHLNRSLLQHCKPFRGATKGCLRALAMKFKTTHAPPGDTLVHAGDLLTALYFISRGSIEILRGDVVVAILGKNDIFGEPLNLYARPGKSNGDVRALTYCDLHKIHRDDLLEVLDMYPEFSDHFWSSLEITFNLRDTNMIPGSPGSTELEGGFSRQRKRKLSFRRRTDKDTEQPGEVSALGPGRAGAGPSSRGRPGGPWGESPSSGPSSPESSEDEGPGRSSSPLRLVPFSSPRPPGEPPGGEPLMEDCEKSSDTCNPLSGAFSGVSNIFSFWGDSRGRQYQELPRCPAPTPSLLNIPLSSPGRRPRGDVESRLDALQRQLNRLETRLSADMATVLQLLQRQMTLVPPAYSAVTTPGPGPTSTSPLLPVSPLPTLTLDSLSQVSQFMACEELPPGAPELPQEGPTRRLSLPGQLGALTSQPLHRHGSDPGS
Description for hERG (KCNH2): Inhibition of human ERG expressed in CHO cells at 40 uM at -80 mV holding potential after 2.5 mins by Qpatch clamp assay relative to control

As for `Oc1ccc(Cn2cnc3ccccc32)c2cccnc12`, the pIC50 (commonly the IC50 on a negative log10 scale, so that one unit is a factor of ten) is 6.47 in data set [1], 6.00 in the data set with MV4-11, 5.33 in the data set with MDA-MB-231 and 5.52 in the data set with MM1.S. Further, the inhibition entry in data set [2] and in data set [3] was “Dose-dependent effect” in each case. The half-life (commonly the time needed for the level to fall by half in the phase considered) at 1 µM in data set [4] amounted to 31 min. Moreover, the ΔTm (in general, the shift of the melting midpoint relative to a reference) in data set [5] amounted to 3.1 °C. For the same compound, the inhibition – broadly, the percentage by which the read-out fell short of the control – at 2.5 min, 40 µM on hERG (KCNH2) is 33%.

As to `Oc1ccc(Cn2cnc(F)c2)c2cccnc12`, the pIC50 in data set [1] was 7.15; with MV4-11, 5.66; with MDA-MB-231, 4.46; with MM1.S, 5.92. The inhibition result in data set [2] and in data set [3] was “Dose-dependent effect” each time. Also, in [4], the half-life at 1 µM was determined as 23 min. For the same compound, the ΔTm in [5] is 4.6 °C. Moreover, the inhibition at 2.5 min, 40 µM against hERG (KCNH2) stood at 10%.

In the case of `Oc1ccc(Cn2ccnc2)c2cccnc12`, the values for the negative-log IC50 (pIC50) (in [1]; in the data set with MV4-11) were 7.00 and 4.57, respectively. The half-life at 1 µM in data set [4] came to 21 min. Besides, the ΔTm in [6] was found to be 5 °C; in [7] it was 2.8 °C; in data set [8], 1.8 °C; in [5], 3.9 °C. The inhibition at 2.5 min, 40 µM against hERG (KCNH2) was determined as 10%.

In the case of `O=[N+]([O-])c1ccc2c(c1)ncn2Cc1ccc(O)c2ncccc12`, the pIC50 in data set [1] was 6.97; with MV4-11, 6.00; with MDA-MB-231, 5.96; in the data set with MM1.S, 4.96. For the same compound, in data set [9], the inhibition entry was “inactive”. The inhibition entry in data set [10] is “Active”. The compound further came in with a half-life at 1 µM in [4] of 27 min. Also, in data set [5], the ΔTm is 4 °C.
